Results: patent US20210371440A1, “TLR7 AND / OR TLR8 AGONISTS” (GLAXOSMITHKLINE BIOLOGICALS SA, priority 2018, published 2021)

What was measured:
human TLR7 = target: T1, human TLR7 (Homo sapiens, UniProt Q9NYK1); test: HEK293 hTLR7 NFKB-SEAP reporter assay; format: cell-based; conditions: for EC50: HEK293 stably transfected with hTLR7, 24 h stimulation, aqueous formulations of choline salts (2% glycerol), SEAP readout, read-out: TLR7 ED50; for TLR7/8 ratio: ratio of TLR7 ED50 to TLR8 ED50, HEK293 reporter cells
T1 construct: host or cells: HEK293
T1 sequence (Q9NYK1 27-1049): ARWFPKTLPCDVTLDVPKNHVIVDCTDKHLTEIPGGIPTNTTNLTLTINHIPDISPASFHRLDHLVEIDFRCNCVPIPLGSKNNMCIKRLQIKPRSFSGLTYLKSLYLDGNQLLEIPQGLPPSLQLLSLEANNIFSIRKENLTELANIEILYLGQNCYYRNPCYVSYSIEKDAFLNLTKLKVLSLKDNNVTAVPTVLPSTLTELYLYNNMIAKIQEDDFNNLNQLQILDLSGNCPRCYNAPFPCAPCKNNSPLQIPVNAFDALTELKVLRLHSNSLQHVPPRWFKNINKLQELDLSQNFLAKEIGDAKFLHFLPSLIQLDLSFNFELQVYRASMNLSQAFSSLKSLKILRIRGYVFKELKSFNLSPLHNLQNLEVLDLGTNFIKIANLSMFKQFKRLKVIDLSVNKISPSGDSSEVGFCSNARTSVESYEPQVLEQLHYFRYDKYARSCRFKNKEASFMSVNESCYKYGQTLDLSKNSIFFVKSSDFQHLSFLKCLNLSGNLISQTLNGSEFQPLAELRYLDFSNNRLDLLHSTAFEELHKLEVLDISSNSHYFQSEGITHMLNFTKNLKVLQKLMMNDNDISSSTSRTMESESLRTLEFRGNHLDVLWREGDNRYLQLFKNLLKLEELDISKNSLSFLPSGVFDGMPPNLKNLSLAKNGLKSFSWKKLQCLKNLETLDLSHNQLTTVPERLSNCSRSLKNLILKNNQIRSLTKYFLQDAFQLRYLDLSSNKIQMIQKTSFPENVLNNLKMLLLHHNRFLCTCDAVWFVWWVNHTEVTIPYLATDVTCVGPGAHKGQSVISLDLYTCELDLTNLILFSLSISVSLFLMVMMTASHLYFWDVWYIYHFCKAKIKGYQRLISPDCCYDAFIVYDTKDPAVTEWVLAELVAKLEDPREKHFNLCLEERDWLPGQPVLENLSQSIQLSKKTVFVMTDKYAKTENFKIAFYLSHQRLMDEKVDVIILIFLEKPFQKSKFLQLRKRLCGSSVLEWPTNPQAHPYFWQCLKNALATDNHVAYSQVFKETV
Procedure: (§1) Determination of TLR agonist activity was performed using the HEK293 binding assay.
(§2) This assay measures TLR7 and TLR8 selectivity and potency of the compounds tested. HEK293 cells expressing human TLR7 or TLR8 and NFKB responsive Secreted Embryonic Alkaline Phosphatase (SEAP) reporter gene were obtained from InvitroGen (San Diego, Calif.). These cells were maintained in culture media of Dulbecco's Modified Eagle Medium (DMEM) (Invitrogen, Grand Island, N.Y.), 10% Fetal Bovine Serum (FBS) (Sigma, St. Louis, Mo.) and selection antibiotics (Invitrogen, and Invitrogen). HEK293 stably transfected with human TLR7 (hTLR7) or human TLR8 (hTLR8) were stimulated for 24 h with aqueous formulations of compounds and culture supernatants were analysed for NFKB activation using the colorimetric SEAP detection kit QuantBlue (InvitroGen).
(§3) Choline salts of the compounds were prepared in aqueous solution (2% glycerol) and sonicated to reduce particle size to 120-370 nm.

human TLR8 = target: T2, human TLR8 (Homo sapiens, UniProt Q9NR97); test: HEK293 hTLR8 NFKB-SEAP reporter assay; format: cell-based; conditions: for EC50: HEK293 stably transfected with hTLR8, 24 h stimulation, aqueous formulations of choline salts (2% glycerol), SEAP readout, read-out: TLR8 ED50
T2 construct: host or cells: HEK293
T2 sequence (Q9NR97 27-1041): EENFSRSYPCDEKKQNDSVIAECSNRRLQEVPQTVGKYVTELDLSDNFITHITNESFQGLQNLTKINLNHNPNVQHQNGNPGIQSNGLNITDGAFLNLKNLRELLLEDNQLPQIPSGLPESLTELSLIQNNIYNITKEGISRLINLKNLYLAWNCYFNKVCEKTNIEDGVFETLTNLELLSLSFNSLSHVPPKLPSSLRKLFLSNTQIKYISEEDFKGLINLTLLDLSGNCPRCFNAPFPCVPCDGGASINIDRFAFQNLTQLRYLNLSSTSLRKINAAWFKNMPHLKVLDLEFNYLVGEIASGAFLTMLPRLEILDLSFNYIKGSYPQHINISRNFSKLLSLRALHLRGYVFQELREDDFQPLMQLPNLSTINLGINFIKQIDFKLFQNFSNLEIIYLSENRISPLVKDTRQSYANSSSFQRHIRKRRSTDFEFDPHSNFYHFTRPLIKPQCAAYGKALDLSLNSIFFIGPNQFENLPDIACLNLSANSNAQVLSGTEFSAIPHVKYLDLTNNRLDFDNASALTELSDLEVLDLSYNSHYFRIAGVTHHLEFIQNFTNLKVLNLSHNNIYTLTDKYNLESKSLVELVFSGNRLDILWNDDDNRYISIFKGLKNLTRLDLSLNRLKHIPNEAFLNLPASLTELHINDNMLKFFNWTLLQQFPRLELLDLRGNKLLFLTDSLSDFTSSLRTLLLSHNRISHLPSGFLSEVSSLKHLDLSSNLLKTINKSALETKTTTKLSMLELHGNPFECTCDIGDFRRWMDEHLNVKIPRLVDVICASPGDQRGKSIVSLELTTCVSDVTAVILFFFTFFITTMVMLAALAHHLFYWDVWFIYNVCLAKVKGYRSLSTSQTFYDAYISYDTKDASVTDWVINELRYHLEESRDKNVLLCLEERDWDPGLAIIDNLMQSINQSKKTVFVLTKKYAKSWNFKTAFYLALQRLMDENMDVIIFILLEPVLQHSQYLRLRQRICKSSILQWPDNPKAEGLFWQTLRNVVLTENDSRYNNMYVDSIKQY
Procedure: as §1, §2, §3

Row | EC50 (human TLR7) [nM] | TLR7/8 ratio (human TLR7) | EC50 (human TLR8) [nM] | hTLR7 activity compared with parent core oxoadenine compound (human TLR7; HEK293 hTLR7, result in words) | TLR7/TLR8 selectivity in words (human TLR7; HEK293 hTLR7 vs hTLR8, relative to similar prior art compounds) | hTLR8 activity compared with parent core oxoadenine compound (human TLR8; HEK293 hTLR8, result in words) | SMILES
1 | 580 | 3.1 | 190 |  |  |  | CCCCc1nc2c(N)nc3ccccc3c2n1CCO [reference compound]
2 | 34600 | 1.3 | 26000 |  |  |  | CC/C=C\CC(=O)OC[C@H](COP(=O)(O)OCCn1c(CCCC)nc2c(N)nc3ccccc3c21)OC(=O)C/C=C\CC [reference compound]
3 | 320 | 0.7 | 470 | slightly more potent | TLR7 bias | slightly more potent | CCCCCCCC/C=C\CCCCCCCC(=O)OC[C@H](COP(=O)(O)OCCN1CCC(Cn2c(=O)[nH]c3c(N)nc(O[C@@H](C)CCC)nc32)CC1)OC(=O)CCCCCCC/C=C\CCCCCCCC [Compound 1]
4 | 340 | 0.6 | 530 |  |  |  | CCC[C@H](C)Oc1nc(N)c2[nH]c(=O)n(CC3CCN(CCO)CC3)c2n1
